# pIC50: −log10 of the molar value.
# Tests used:
# Type in all cases: cell-based
# [1] = target: T1, progesterone receptor (PR) (Homo sapiens, UniProt P06401); experiment: Cellular in vitro assay, GAL4-PR chimera luciferase reporter in CHO K1 cells (selectivity); details: GAL4-PR ligand-binding domain chimera, agonist progesterone
# T1 construct: of the progesterone receptor (PR, amino acids 680-933); expressed in transfected cells; host or cells: CHO K1
# T1 sequence (P06401 680-933): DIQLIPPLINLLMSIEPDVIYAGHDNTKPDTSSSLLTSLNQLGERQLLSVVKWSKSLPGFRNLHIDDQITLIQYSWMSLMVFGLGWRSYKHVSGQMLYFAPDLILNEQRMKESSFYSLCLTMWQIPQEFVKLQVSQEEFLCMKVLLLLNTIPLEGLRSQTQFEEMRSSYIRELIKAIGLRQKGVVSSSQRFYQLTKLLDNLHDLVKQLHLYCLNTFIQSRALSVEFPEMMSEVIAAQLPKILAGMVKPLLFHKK
# Excerpt: (§1) 1. Cellular In Vitro Assay to Determine the Inhibitory MR Activity and MR Selectivity Compared with Other Steroid Hormone Receptors
# (§2) Antagonists of the human mineralocorticoid receptor (MR) are identified, and the efficacy of the compounds described herein is quantified with the aid of a recombinant cell line. The cell is originally derived from a hamster ovary epithelial cell (Chinese Hamster Ovary, CHO K1, ATCC: American Type Culture Collection, VA 20108, USA).
# (§3) An established chimera system in which the ligand-binding domains of human steroid hormone receptors are fused to the DNA-binding domain of the yeast transcription factor GAL4 is used in this CHO K1 cell line. The GAL4-steroid hormone receptor chimeras produced in this way are cotransfected and stably expressed with a reporter construct in the CHO cells.
# (§4) To generate the GAL4-steroid hormone receptor chimeras, the GAL4 DNA-binding domain (amino acids 1-147) from the vector pFC2-dbd (from Stratagene) is cloned with the PCR-amplified ligand-binding domains of the mineralocorticoid receptor (MR, amino acids 734-985), of the glucocorticoid receptor (GR, amino acids 443-777), of the progesterone receptor (PR, amino acids 680-933) and of the androgen receptor (AR, amino acids 667-919) into the vector pIRES2 (from Clontech). The reporter construct, which contains five copies of the GAL4 binding site upstream of a thymidine kinase promoter, leads to expression of firefly luciferase (Photinus pyralis) after activation and binding of the GAL4-steroid hormone receptor chimeras by the respective specific agonists aldosterone (MR), dexamethasone (GR), progesterone (PR) and dihydrotestosterone (AR).
# (§5) The MR, GR, PR and AR cells are plated out in medium (Optimem, 2.5% FCS, 2 mM glutamine, 10 mM HEPES) in 96-well (or 384- or 1536-well) microtiter plates the day before the assay, and are kept in a cell incubator (96% air humidity, 5% v/v CO2, 37° C.). On the day of the assay, the substances to be tested are taken up in the abovementioned medium and added to the cells. About 10 to 30 minutes after addition of the test substances, the respective specific agonists of the steroid hormone receptors are added. After a further incubation time of 5 to 6 hours, the luciferase activity is measured with the aid of a video camera. The relative light units measured as a function of the substance concentration give a sigmoidal stimulation curve. The IC50 values are calculated with the aid of the computer program GraphPad PRISM (Version 3.02).
# [2] = target: T2, glucocorticoid receptor (GR) (Homo sapiens, UniProt P04150); experiment: Cellular in vitro assay, GAL4-GR chimera luciferase reporter in CHO K1 cells (selectivity); details: GAL4-GR ligand-binding domain chimera, agonist dexamethasone
# T2 construct: of the glucocorticoid receptor (GR, amino acids 443-777); expressed in transfected cells; host or cells: CHO K1
# T2 sequence (P04150 443-777): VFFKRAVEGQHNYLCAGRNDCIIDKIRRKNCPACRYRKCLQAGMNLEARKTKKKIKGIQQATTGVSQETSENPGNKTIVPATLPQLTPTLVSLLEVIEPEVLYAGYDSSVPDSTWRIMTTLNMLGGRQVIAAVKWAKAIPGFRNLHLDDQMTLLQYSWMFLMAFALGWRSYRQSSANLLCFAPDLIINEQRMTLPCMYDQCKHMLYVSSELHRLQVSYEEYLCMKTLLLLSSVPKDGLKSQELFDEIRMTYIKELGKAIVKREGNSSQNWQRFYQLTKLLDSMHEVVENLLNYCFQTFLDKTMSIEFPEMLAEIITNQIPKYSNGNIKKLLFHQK
# Excerpt: as §1, §2, §3, §4, §5
# [3] = target: T3, human mineralocorticoid receptor (MR) (Homo sapiens, UniProt P08235); experiment: Cellular in vitro assay, GAL4-MR chimera luciferase reporter in CHO K1 cells (inhibitory MR activity); details: GAL4-MR ligand-binding domain chimera, agonist aldosterone
# T3 construct: expressed in transfected cells; host or cells: CHO K1
# T3 sequence (P08235 734-984 limits assumed): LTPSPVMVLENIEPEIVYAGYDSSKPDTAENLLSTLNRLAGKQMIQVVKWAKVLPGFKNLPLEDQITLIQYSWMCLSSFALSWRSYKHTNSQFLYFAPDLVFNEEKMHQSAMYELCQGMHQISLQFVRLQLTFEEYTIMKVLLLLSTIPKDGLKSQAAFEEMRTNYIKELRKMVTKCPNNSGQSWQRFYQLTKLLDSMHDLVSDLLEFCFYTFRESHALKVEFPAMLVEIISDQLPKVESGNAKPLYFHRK
# Excerpt: as §1, §2, §3, §4, §5
# [4] = target: T4, androgen receptor (AR) (Homo sapiens, UniProt P10275); experiment: Cellular in vitro assay, GAL4-AR chimera luciferase reporter in CHO K1 cells (selectivity); details: GAL4-AR ligand-binding domain chimera, agonist dihydrotestosterone
# T4 construct: of the androgen receptor (AR, amino acids 667-919); expressed in transfected cells; host or cells: CHO K1
# T4 sequence (P10275 667-919): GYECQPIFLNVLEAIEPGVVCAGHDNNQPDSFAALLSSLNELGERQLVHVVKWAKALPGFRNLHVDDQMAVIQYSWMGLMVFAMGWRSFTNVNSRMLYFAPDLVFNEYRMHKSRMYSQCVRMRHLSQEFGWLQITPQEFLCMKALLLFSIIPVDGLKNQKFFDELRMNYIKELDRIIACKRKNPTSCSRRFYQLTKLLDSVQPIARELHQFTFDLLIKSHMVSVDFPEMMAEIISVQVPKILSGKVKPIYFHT
# Excerpt: as §1, §2, §3, §4, §5
Compound,pIC50 [1],pIC50 [2],pIC50 [3],pIC50 [4]
"CCc1cccc2c(C(CCCO)c3ccc(C(F)(F)F)cc3)c[nH]c12 (single isomer, unassigned) [Example 3-1, 4-(7-Ethyl-1H-indol-3-yl)-4-[4-(trifluoromethyl)phenyl]butan-1-ol]",5.23,5.19,6.38,5.44
"CCc1cccc2c(C(CCCC#N)c3ccc(C(F)(F)F)cc3)c[nH]c12 (single isomer, unassigned) [Example 4-1, 5-(7-Ethyl-1H-indol-3-yl)-5-[4-(trifluoromethyl)phenyl]pentanenitrile]",5.76,5.63,6.85,5.70
"Cc1cccc2c(C(CCCC#N)c3ccc(C(F)(F)F)cc3)c[nH]c12 (single isomer, unassigned) [Example 8-1, 5-(7-Methyl-1H-indol-3-yl)-5-[4-(trifluoromethyl)phenyl]pentanenitrile]",5.57,5.29,6.70,5.82
"CS(=O)(=O)Nc1cccc2c(C(CCC#N)c3ccc(C(F)(F)F)cc3)c[nH]c12 (single isomer, unassigned) [Example 17-1]",5.35,5.66,7.70,5.64
"CS(=O)(=O)Nc1cccc2c(C(CCO)c3ccc(C(F)(F)F)cc3)c[nH]c12 (stereo not shown) [Example 16, N-(3-{3-Hydroxy-1-[4-(trifluoromethyl)phenyl]propyl}-1H-indol-7-yl)methanesulfonamide]",,6.15,6.48,
CCc1cccc2c(C(CCC#N)c3ccc4ccccc4c3)c[nH]c12 (stereo not shown) [Example 34],5.47,6.41,7.05,5.38
